Data reported in patent US20200121716A1, “Method for Inhibiting Both Glycolysis and Glutamine Metabolism in Cells and Use Thereof” (priority 2017, published 2020).
Like-named read-outs stand apart in the source and are kept apart here.

Tests used:
[1] = system: anaerobic bacteria or facultative anaerobic bacteria; format: cell-based
[2] = system: L-glutamate dehydrogenation; test: spontaneous fermentation of flour paste mixed with L-glutamate; format: cell-based; settings: for level of water absorbed on dry test paper: paper inserted 30 minutes, without reducing agent 5 mm
[3] = trials on patients with gout, urine pH; format: in vivo, human
[4] = spraying on brown spots on the face; format: in vivo, human; settings: 5 ppm sodium selenite solution and randomly 3% aqueous sodium formate solution
fly maggot eggs = test: meat slice preservative experiment
[5] = trials on patients with gastric ulcer or gastrointestinal inflammation; format: in vivo, human; settings: about 30 of about 80 tumor patients having gastrointestinal inflammation
glutamine metabolism = test: spontaneous fermentation of flour paste mixed with glutamine; format: cell-based; settings: about 25 °C, one hour, without reducing agent 8 to 9
[6] = cited from earlier work
bacteria = test: preservative effect on lettuce leaf, loofah juice and celery leaf in water
fermenting microorganism = test: flour fermentation experiment; format: cell-based; settings: second day of fermentation; without sodium selenite pH 4-5
Procedure: Two portions of flour (50 g each) were used for fermentation experiments. Each portion was mixed with an equal amount (about 50 g) of water, and to one of the mixtures sodium selenite having about 200 μg selenium was added. […] The same phenomenon was observed over 20 days of continuous monitoring (the contrast between flour fragrance and the acidic odor). As measured by pH test paper, the flour with sodium selenite on the second day of fermentation was slightly alkaline with a pH of 7-8, while the flour without sodium selenite was acidified after fermentation with a pH of 4-5. […] Since tumor cells and anaerobia cells have the same steps and processes of chemical reactions in glycolysis, it is believed that tumor cells would either stop metabolism and die, or change the metabolic pattern and turn into normal cells.

anaerobia = test: spontaneous anaerobic fermentation of flour paste sealed with rapeseed oil; format: cell-based; settings: about 7 months spontaneous fermentation, air blocked with rapeseed oil; amounts added as
tumors = test: administration of reducing agents in cycles to tumor patients; format: in vivo, human; settings: advanced lung cancer, 15-month course with bevacizumab, before reducing agents
[7] = after 3 days, sodium formate 1 g 3 times per day, sodium oxalate 1 g per day
[8] = evening of same day, bare meat densely covered
[9] = next morning, maggots appeared on untreated slice

Compound	level of water absorbed on dry test paper [2]	fly maggot eggs on the meat slice (fly maggot eggs; [8])	maggots on the meat slice (fly maggot eggs; [9])	pH value of the gas in the beaker (wet pH paper) (glutamine metabolism)	fly maggot eggs on the meat slice (fly maggot eggs)	other results
O=C[O-].[Na+] [sodium formate]	about 9 mm	about 5	no maggot was hatched	about 7.5	–	pH of water in the glutinous rice [1]: slightly decreased from about 7; pH value of water in the glutinous rice [1]: about 6; pain feeling of gout [3, 7]: alleviated and even disappeared; urine pH, hospital urine test ([3]; patient with a tumor, 1 g per day for two weeks): 8; colored spots in more than 10 people [4]: faded or disappeared colored spots; gastrointestinal discomfort [5]: alleviated gastrointestinal discomfort
O=C([O-])C(=O)[O-].[Na+].[Na+] [sodium oxalate]	about 9 mm	–	–	about 7.5	about 5	pain feeling of gout [3, 7]: disappeared; morning urine pH by test paper ([3]; gout patients, after 3 days, sodium formate 1 g 3 times per day, sodium oxalate 1 g per day, 5.5 to 6 during onset): 7; pH of urine tested first in the morning ([3]; patients with frequent gout, 1 g per day): increased pH; maggots on the meat slice (fly maggot eggs): no maggot was hatched
O=[Se](O)O [sodium selenite]	9 mm	–	–	about 7.5	5	pH value of the gas in the beaker (wet pH paper) ([2]; one hour, without sodium selenite 8): about 7.5; toxic dose ([6]; human, oral administration, publicly reported): 400 mg per day; diameter of brown rot spot on lettuce leaf (bacteria; fifth day, 180 μg selenium in 80 g tap water, 15 to 20 °C, without: about 6 mm): about 1 mm; diameter of spot on loofah juice (bacteria; fifth day, with sodium selenite): about 3 mm; day a spot first appeared on the surface of loofah juice (bacteria; loofah juice with sodium selenite, without: about 3 mm spot on second day): 3 days; pH of flour by pH test paper (fermenting microorganism): 7-8
sodium sulfide	–	–	–	–	about 5	maggots on the meat slice (fly maggot eggs): no maggot was hatched
[Se] [selenium]	–	–	–	–	–	safe dose ([6]; oral intake): no more than 400 mg per day
N[C@@H](CS)C(=O)O [L-cysteine]	–	–	–	–	–	aqueous solution above the settled flour (anaerobia): clear and transparent
selenium dioxide	about 9 mm	about 5	no maggot was hatched	about 7.5	–	–
bevacizumab	–	–	–	–	–	CY211 index during course (tumors): up to 28
calcium formate	about 9 mm	about 5	no maggot was hatched	about 7.5	–	effect on pH of water in the glutinous rice [1]: same effect
O=C(O)C(=O)O [oxalic acid]	about 9 mm	about 5	no maggot was hatched	about 7.5	–	aqueous solution above the settled flour (anaerobia): clear and transparent
O=CO [formic acid]	–	–	–	–	about 5	maggots on the meat slice (fly maggot eggs): no maggot was hatched
